Values joined by “and” are separate entries in the source; they are usually repeats but may differ in a detail not shown here. Identical values can stand only once.
Legend:
Sprague-Dawley rats [1] = assay: Rat ischemia/reperfusion model (echocardiography, Evan's blue & TTC staining at 24 hours); type: in vivo; parameters: LVDd / LVDs / AAR: unit not given beside the values
Experimental: (§1) After 24 hours, 10% Evans blue (Sigma, St. Louis, Mo.) was injected intravenously before sacrifice. Hearts were removed and cut in three equivalent sections distal to the occluding LAD suture and one proximal. The distal sections were digitized to evaluate the nonperfused area at risk using NIH Image software. Sections were stained with 2% triphenyltetrazolium chloride ([…]) (Sigma, St. Louis, Mo.) to delineate ischemic area. Infarct size is presented as the percentage of area at risk to eliminate variability. For example, the area at risk (AAR) is measured as a function of (white+red area)/(blue+white+red area); the % infarct is measured as a function of (white area (% of LV area))/(blue+white+red area); and the % infarct/AAR is calculated as a function of (white area (% of AAR))/(white+red area).
(§2) In-vivo water content was evaluated using MRI performed serially on anesthetized rats 24 hours following MI using a 4.7-T MR scanner (Bruker Billerica Mass.). […] MRI experiments to quantify T2 values of the myocardium were conducted by applying an ECG and respiratory-triggered multiecho spin echo sequence (number of echoes, 8; echo time, 6.6 ms; slice thickness, 1.0 mm; inplane resolution, 430 μm^2; total slices, 6-7). The trigger delay was chosen to capture all echoes during full diastole to avoid motion artifact between echoes. Corresponding gradient echo images were also acquired for each slice to clearly delineate the blood/myocardium border for region of interest evaluation of the spin echo sequence. Because of their increased water content, edematous regions are expected to have a longer T2 relaxation than nonedematous regions. Regions with T2>40 ms (two standard deviations above the mean of normally perfused myocardium) were delineated and the volume calculated as a percentage of the total LV myocardial volume. In addition, ex-vivo myocardial water content of proximal heart sections was measured as the percentage difference between initial wet and dry weights after 24 hours incubation at 80° C. Transthoracic echocardiography (SONOS 5500, Agilent Technologies, Palo Alto, Calif.) was performed to evaluate LV function before (baseline) and 4 weeks after MI. For this analysis, rats were anesthetized with 0.6 ml/kg ketamine intraperitoneally.
To establish whether Src inhibition is beneficial following transient ischemia, rats were subjected to occlusion followed by reperfusion, and then evaluated for ventricular function and infarct size after 24 hours. […] Subjects were evaluated with echocardiography (FIGS. 13 and 18) and TTC staining (FIGS. 14 and 18) 24 hours after occlusion (Table 7).

Sprague-Dawley rats [2] = assay: Ex-vivo myocardial water content (wet/dry weights); type: in vivo, rat
Experimental: as §2
Rats were treated with 0.5 mg/kg, 1.5 mg/kg, or a placebo post-MI induction and the myocardial water content was compared.

Sprague-Dawley rats [3] = assay: Rat acute MI model (permanent LAD ligation), infarct size by Evans blue/TTC; type: in vivo
Experimental: (§3) Generally, myocardial Infarction (MI) was induced by ligating the left anterior descending (LAD) coronary artery in Sprague-Dawley rats or in C57 black mice. Intraperitoneal injections of the inhibitors were delivered after the induction of infarction. High resolution magnetic resonance imaging (MRI), dry weight measurements, infarct size, heart volume and area at risk were determined 24 hours after induction of MI. Survival rates and echocardiography were determined at 4 weeks post-MI.
as §1
Essentially, MI was induced in rats as described above. […] Control rats were mock-treated with the dimethylsulfoxide (DMSO) vehicle. Tests were performed 24 hours post-MI induction.
To study the kinetics of this response, PP1 was administered at various times following occlusion. Essentially, MI was induced in rats as described above. […] Control rats were mock-treated with the dimethylsulfoxide (DMSO) vehicle. Tests were performed 24 hours post-MI induction.

C57 black mice = assay: Mouse MI model (permanent occlusion), infarct size; type: in vivo
Experimental: as §3, §1

[4] = test system: 2-year-old C57 black mice; assay: Survival after MI in 2-year-old mice
Experimental: 2-year-old C57/ByJ mice were used as a model of severe MI to test the effects of Src inhibition on survival. […] Adult male Sprague-Dawley rats (Harlan, Indianapolis, Ind.) and C57/ByJ mice (Jackson Laboratory, Bar Harbor, Me.) were maintained under approved protocols.
MI was induced in mice. […] Survival rates were assessed.
To evaluate survival after MI, 2-year-old C57 black mice were used as a model characterized by considerable mortality (>40%) after LAD ligation.

VEGF = assay: Immunohistochemistry for VEGF in hearts 24 hours after MI; type: in vivo, rat; details: 24 hours after induction of MI; FIGS. 2A and 2B
Experimental: FIGS. 2A and 2B show the results of an immunohistochemistry assay for VEGF on rat heart samples 24 hours after induction of myocardial infarction, with VEGF+ and ischemic regions indicated.

Sprague-Dawley rats [5] = assay: In-vivo MRI T2 mapping of edematous myocardium; parameters: species or system rat
Text: Because of their increased water content edematous regions are expected to have a longer 72 relaxation than nonedematous regions. As a result, T2 maps of the myocardium can be used as an index of water content. Regions with T2>40 ms (two standard deviations above normally perfused myocardium) were delineated as an index of edema.
Because of their increased water content, edematous regions are expected to have a longer T2 relaxation than nonedematous regions and therefore T2 maps of the myocardium can be used as an index of water content. Regions with T2>40 ms (two standard deviations above normally perfused myocardium) were delineated as an index of edema.

mouse cardiac tissue = assay: Ultrastructural analysis of cardiac tissue by electron microscopy after MI; type: in vivo; details: 1.5 mg/kg 45 minutes following occlusion
Experimental: Cardiac tissue was prepared from mice following VEGF injection or 3-24 hours following ischemia and the infarct, the peri-infarct, and remote regions were sectioned. Tissue was fixed in 0.1 M sodium cacodylate buffer (pH 7.3) containing 4% paraformaldehyde+1.5% glutaraldehyde for 2 hours, transferred to 5% glutaraldehyde overnight, then 1% osmium tetroxide for 1 hour. Blocks were washed, dehydrated, cleared in propylene oxide, infiltrated with Epon/Araldite, and embedded in resin. Ultrathin sections were stained with uranyl acetate and lead citrate, and viewed using a Philips CM-100 transmission electron microscope.

[6] = test system: Flk-cadherin-catenin complex; assay: In vivo permeability model: immunoprecipitation/immunoblotting after VEGF injection; details: mice pretreated before VEGF injection; FIG. 20D
Experimental: At the appropriate time, the heart was rapidly excised and homogenized in 3 ml RIPA lysis buffer as previously described (Eliceiri et al. Mol. Cell 4: 915-924 (1999)) and the protein concentration measured (BCA Protein Assay; Pierce, Rockford, Ill.).
Tissue lysates were prepared for immunoprecipitation and immunoblotting as previously described (Eliceiri et al. Mol. Cell 4: 915-924 (1999)) with antibodies from Santa Cruz Biotechnology (Santa Cruz, Calif.): Flk (sc315), VE-cadherin (sc6458), β-catenin (sc7963), and P-Tyrosine (sc7020 or sc508). Representative data from at least three separate experiments is shown.
(Data is representative of at least three experiments.)
Heart lysates prepared from animals injected with or without VEGF were subjected to immunoprecipitation with anti-Flk followed by immunoblotting for VE-cadherin and β-catenin. In control mice, a pre-existing complex between Flk, β-catenin, and VE-cadherin in blood vessels was observed. This complex was rapidly disrupted within 2-5 minutes following VEGF stimulation, and had reassembled by 15 minutes in blood vessels in vivo. The timescale of complex dissociation completely paralleled that of Flk, β-catenin, and VE-cadherin phosphorylation and the dissociation of β-catenin from VE-cadherin.

mice = details: mouse, in vivo; cited from earlier work
Sprague-Dawley rats [7] = assay: Echocardiography 4 weeks post-MI; type: in vivo, rat
Experimental: as §2
MI was induced in rats as described above. […] Tests were performed 24 hours post-MI induction. Four weeks post-MI, fraction shortening was assessed by echocardiography.

[8] = test system: Src family kinases Lyn and/or Hck; details: cited from earlier work
CML cells = details: cited from earlier work
[9] = individual rat, 1.5 mg/kg i.p., 24 hours after occlusion, 1.5 mg/kg
[10] = individual rat, Table 8, listed as Src-I
[11] = individual rat, Table 8, MRI, listed as Src-I

In the case of `Cc1ccc(-c2nn(C(C)(C)C)c3ncnc(N)c23)cc1` [PP1], the “% FS (echocardiography), group mean” value (Sprague-Dawley rats [1]; 1.5 mg/kg i.p., n=4, 24 hours) is reported as 30.6±3.16%, the “% infarct/AAR, group mean” value (Sprague-Dawley rats [1]; 1.5 mg/kg i.p., n=4, 24 hours) is reported as 42.4±3.72 % of AAR and the “Area at risk, group mean” value (Sprague-Dawley rats [1]; 1.5 mg/kg i.p., n=4, 24 hours) is reported as 36.1±9.61. For the same molecule, the “RWMS (echocardiography), group mean” value (Sprague-Dawley rats [1]; 1.5 mg/kg i.p., n=4, 24 hours) was 18.5±0.58, the “reduction in infarct size following ischemia-reperfusion” value (Sprague-Dawley rats [1]; FIG. 14) was 18% and the “% FS” value (Sprague-Dawley rats [1]; [9]) was 34.9% and 28.7% and 27.8% and 30.9%. The AAR (Sprague-Dawley rats [1]; [9]) was 32.9 and 27.2 and 34.4 and 49.7, the IA/AAR (Sprague-Dawley rats [1]; [9]) was 42.1 and 42.4 and 47 and 37.9 and the LVDd (Sprague-Dawley rats [1]; [9]) was 0.729 and 0.737 and 0.877 and 0.797. The LVDs (Sprague-Dawley rats [1]; [9]) was 0.475 and 0.525 and 0.633 and 0.551, the RWMS (Sprague-Dawley rats [1]; [9]) was 18 (2×) and 19 (2×) and the “decreased myocardial water content” value (Sprague-Dawley rats [2]; permanent MI, FIG. 8) was 5%+/−1.3. For the same molecule, the “maximum inhibition in infarct size” value (Sprague-Dawley rats [3]; 1.5 mg/kg i.p. 45 minutes after MI induction, 24 hours post-MI, FIG. 5) was 68%, the “cardiac tissue 24 hours after induction of MI” value (Sprague-Dawley rats [3]; FIG. 1A vs 1B) was “cardioprotection” and the “smaller infarct size (maximum benefit)” value (Sprague-Dawley rats [3]; additional experiments, administration 45 minutes following occlusion, FIG. 17) was 50%. The “edema and infarct size, dose dependence” value (Sprague-Dawley rats [3]; additional experiments, maximum decrease at 1.5 mg/kg, FIGS. 15 and 16) was “dose-dependent decreases in edema and infarct size”, the “protection (infarct size)” value (Sprague-Dawley rats [3]; additional experiments, treatment after 6 hours, FIG. 17) was 25% and the “decrease in infarct size” value (Sprague-Dawley rats [3]; given six hours after LAD ligation, FIG. 7) was 42%. For the same molecule, the “decrease in infarct size following permanent occlusion” value (Sprague-Dawley rats [3]; permanent occlusion, quoted for comparison with ischemia-reperfusion) was 50%, the “infarct size following permanent occlusion” value (Sprague-Dawley rats [3]; rat) was “significant reduction of infarct size” and the “infarct size following permanent occlusion” value (C57 black mice) was “significant reduction of infarct size”. For the same molecule, the “survival within the first 4 weeks” value ([4]; 1.5 mg/kg 45 minutes post-MI, n=12 each group) was 91.7%, the four-week survival rate ([4]; 1.5 mg/kg, FIG. 10) was 100% and the “VEGF expression in the ischemic tissues” value (VEGF) was “did not interfere with VEGF expression”. For the same molecule, the “LV volumes with T2>40 ms versus vehicle treated rats” value (Sprague-Dawley rats [5]; 24 hours following permanent LAD occlusion, n=2, FIGS. 22A and 22B) was “a difference between LV volumes with T2>40 ms”, the “vascular gaps (ultrastructure)” value (mouse cardiac tissue) was “did prevent vascular gaps” and the “Cardiac Damage (observations counted)” value (mouse cardiac tissue; 3 hr MI) was 2. For the same molecule, the “EC Injury (observations counted)” value (mouse cardiac tissue; 3 hr MI) was 14, the “Platelet Activation & Adhesion (observations counted)” value (mouse cardiac tissue; 3 hr MI) was 11 and the “EC Barrier Dysfunction (observations counted)” value (mouse cardiac tissue; 3 hr MI, approximately 250 microvessels) was 2. The “Cardiac Damage (observations counted)” value (mouse cardiac tissue; 24 hr MI) was 9, the “EC Barrier Dysfunction (observations counted)” value (mouse cardiac tissue; 24 hr MI) was 0 and the “EC Injury (observations counted)” value (mouse cardiac tissue; 24 hr MI) was 15. The “Platelet Activation & Adhesion (observations counted)” value (mouse cardiac tissue; 24 hr MI) was 1, the “myocyte injury (ultrastructure)” value (mouse cardiac tissue; at 24 hours) was “significant reduction in myocyte injury” and the “Flk-cadherin-catenin complex after VEGF injection” value [6] was “remains intact”. The “ischemia and brain damage after stroke” value (mice) was “reduce ischemia and brain damage after stroke”, the “fractional shortening assessed by echocardiography” value (Sprague-Dawley rats [7]; 4 weeks post-MI, 1.5 mg/kg i.p., FIG. 11) was 33.7% and the “favorable effect on regional wall motion” value (Sprague-Dawley rats [7]; over 4 weeks, n=8) was 9%. For the same molecule, the “favorable effect on systolic LV diameter” value (Sprague-Dawley rats [7]; over 4 weeks, n=8) was 16%, the “preservation of diastolic left ventricular diameter compared with untreated rats” value (Sprague-Dawley rats [7]; over 4 weeks, n=8) was 11% and the “preservation of fractional shortening compared with untreated rats” value (Sprague-Dawley rats [7]; over 4 weeks, n=8 each group) was 46%.
In the case of `COc1cc(Nc2c(C#N)cnc3cc(OCCCN4CCN(C)CC4)c(OC)cc23)c(Cl)cc1Cl` [SKI-606], the “decrease in infarct size in the ischemia-reperfusion model” value (Sprague-Dawley rats [1]; 5 mg/kg, FIG. 19) is reported as 43%, the “% infarct/AAR, group mean” value (Sprague-Dawley rats [1]; SKI-606 study, Example 9) is reported as 54.8±2.45 % of AAR and the “Area at risk, group mean” value (Sprague-Dawley rats [1]; SKI-606 study, Example 9) is reported as 37.9±2.76. The “RWMS (echocardiography), group mean” value (Sprague-Dawley rats [1]; SKI-606 study, Example 9) was 21.3±1.25, the “fractional shortening and regional wall motion score” value (Sprague-Dawley rats [1]; after 24 hours, n=7 each group) was “favorably impacted fractional shortening and regional wall motion score” and the “% FS” value (Sprague-Dawley rats [1]; [10]) was 21.6%. The AAR (Sprague-Dawley rats [1]; [10]) was 38.6 and 35.2 and 36.7 and 42.3 and 36.5, the Dd (Sprague-Dawley rats [1]; [10]) was 0.873 and 0.881 and 0.703 and 0.805 and 0.865 and 0.669 and 0.89 and the Ds (Sprague-Dawley rats [1]; [10]) was 0.661 and 0.669 (3×) and 0.619 and 0.678 and 0.513. For the same molecule, the IA/AAR (Sprague-Dawley rats [1]; [10]) was 58.6 and 55.5 and 54.5 and 52.4 and 53, the “RW MS” value (Sprague-Dawley rats [1]; [10]) was 20 (2×) and 21 (3×) and 23 (2×) and the “Water Content, group mean” value (Sprague-Dawley rats [2]; SKI-606 study, Example 9) was 76.7±2.01. The “% water” value (Sprague-Dawley rats [2]; [10]) was 78% and 74.4% and 74.1% and 79.1% and 78.7% and 76.6% and 75.8%, the “phosphorylation of the autoactivation site of Lyn and/or Hck” value [8] was “reduces phosphorylation” and the “MRI % T2>35, group mean” value (Sprague-Dawley rats [5]; SKI-606 study, Example 9) was 18.4±8.85%. For the same molecule, the “(%) T2 > 35” value (Sprague-Dawley rats [5]; [11]) was 27.518% and 13.699% and 13.287% and 28.257% and 9.198%, the “(%) T2 > 40” value (Sprague-Dawley rats [5]; [11]) was 17.955% and 5.743% and 7.537% and 19.466% and 5.719% and the “T2 > 40” value (Sprague-Dawley rats [5]; individual rat, Table 9 summary, listed as Src-I) was 19.466 and 5.719 and 17.955 and 5.743 and 7.537. The “antiproliferative activity against CML cells in culture” value (CML cells) was “potent antiproliferative activity”.
